Common to all, as to assay: inhibition of tumour cell growth, NCI panel, 48 h
Test [1] deals with SK-MEL-5 melanoma.
Test [2] concerns NCI-H226 lung.
Test [3] relates to SF-539 CNS.
The test system of test [4] is SNB-78 CNS.
Test [5] relates to SK-MEL-2 melanoma.
Test [6] concerns HOP-18 NSCLC.
The test system of test [7] is LXFL 529 NSCLC.
Test [8] relates to A498 renal.
For test [9], the system named is M14 melanoma.
Test [10] has as its system OVCAR-8 ovarian.
The subject of test [11] is CCRF-CEM leukemia.

“And” between values parts separate entries of the source, which are not always exact repeats. Equal values may be shown once.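 Cells were grown in 96-well plates and exposed to each compound for 48 hours at five concentrations; endpoints were interpolated linearly between bracketing concentrations, or set to the highest concentration if not reached. Abbreviation: GI50, concentration required for 50% inhibition of growth. Definition used: TGI = concentration required for complete inhibition of growth.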 Where a SMILES comes first, the peptide text is derived from it. [ ]: non-standard residue; d: D form. The star is where a group is joined. ξ: configuration not given here. X3 = COc1ccc(C(N*)c2ccc(OC)cc2)cc1; NMeF = CN[C@@H](Cc1ccccc1)C(=O)O; NMeD = CN[C@@H](CC(=O)O)C(=O)O; NMeV = CN[C@H](C(=O)O)C(C)C; ξNMeV = CNC(C(=O)O)C(C)C; Boc = CC(C)(C)OC(=O)*; ξNMeA = CNC(C)C(=O)O; ξV = CC(C)C(N)C(=O)O

Regarding `COc1nc(NC2OC(COC(C)=O)C(OC(C)=O)C(OC(C)=O)C2OC(C)=O)c2c(OC(C)=O)cc(=O)oc2n1` (stereo not given), the TGI in test [1], in test [2], in test [3], in test [4], in test [5] and in test [6] was > 100 µM each time. Further, the TGI in test [7] is > 100 µM; in [8] it was 30.2 µM; in test [9] it was > 100 µM; in test [10], > 100 µM; in test [11], > 100 µM.

`CCc1c(OC(C)=O)c2c(NC3OCC(OC(C)=O)C(OC(C)=O)C3OC(C)=O)nc(SC)nc2oc1=O` (stereo not given): the TGI in test [1], in test [2], in test [3], in test [4], in [5] and in test [6] was > 100 µM throughout. For the same compound, the TGI in test [7], in test [8], in test [9], in [10] and in test [11] was > 100 µM each time.

Consider `O=C(Nc1ccccc1-c1nn(C(=S)Nc2ccccc2)c(=S)n(C(=S)Nc2ccccc2)c1=O)C(F)(F)F`, for which the TGI was 26 µM in test [1]; 76 µM in [2]; > 100 µM in [3]; > 100 µM in test [4]; > 66.7 µM in test [5]; > 100 µM in test [6]. Also, the TGI in test [7] was 54 µM; in [8], > 76.6 µM; in test [9], 53.3 µM; in test [10], > 90.3 µM; in test [11], 62.1 µM.

With `O=c1c(-c2ccccc2)c2oc(c1-c1ccccc1)CSCc1cccc(c1)CSC2`, the TGI in [1] is > 100 µM; in test [2], > 100 µM; in [3] it was 60.4 µM; in test [4], > 100 µM; in test [5] it was > 100 µM; in test [6], > 100 µM. The TGI in test [7] was > 100 µM; in test [8], 69.6 µM; in test [9], > 100 µM; in test [10] it was > 100 µM; in test [11], > 100 µM.

For the compound `CCCCN(CCCC)C(=O)C(=O)C(C(=O)c1ccc(OC)cc1)c1ccc(OC)cc1` (stereo not given), the TGI in [1], in test [2], in [3], in test [4], in test [5] and in [6] was > 100 µM in each case. The TGI in test [7], in test [9], in [10] and in test [11] was > 100 µM each time.

In the case of `CC(=O)O/N=C(/C)c1ccccc1O`, the TGI in test [2], in test [3], in [4], in test [5], in test [6] and in test [7] was > 100 µM throughout. Moreover, the TGI in [9], in test [10] and in test [11] was > 100 µM each time.

Take `N#C/C(=C\c1cccc(Cl)c1Cl)c1ccccc1`: the TGI in test [1] is > 100 µM; in [2], > 100 µM; in test [3], 53.3 µM; in test [4] it was > 100 µM; in [5], > 100 µM; in test [6] it was > 90.4 µM. The TGI in test [7] is > 100 µM; in test [8] it was 89.6 µM; in [9], > 100 µM; in test [10], > 100 µM; in test [11], > 46.4 µM.

For `CN(C)CCn1c2c3ccccc3ccc2c2oc(=O)c3ccccc3c21`, the TGI in test [3] is 7.1 µM; in test [4] it was 48.1 µM; in test [5] it was 35 µM; in [6], 35.3 µM; in [7], 17.2 µM; in [9], 19.1 µM. Further, the TGI in [11] is > 100 µM.

In the case of `Cc1ccc(Oc2ccc(C)cc2N)cc1`, the TGI in test [1], in test [2], in test [3], in test [4], in test [5] and in test [6] was > 100 µM each time. Moreover, the TGI in [7], in test [8], in [9], in [10] and in test [11] was > 100 µM in each case.

In the case of `CC(C)(C)c1cc2ccc(C(N)=O)cc2c(=O)[nH]1`, the TGI in test [1], in test [2], in [3], in test [4], in test [5] and in test [6] was > 100 µM in each case. Further, the TGI in test [7], in test [8], in [9], in [10] and in test [11] was > 100 µM in each case.

As to `COc1ccc(C(NC(=O)C[C@@H](C(=O)N(C)C(C)C(=O)O)N(C)C(=O)[C@@H]2CCCN2C(=O)[C@H](C(C)C)N(C)C(=O)C(C(C)C)N(C)C(=O)[C@H](Cc2ccccc2)N(C)C(=O)C(NC(=O)OC(C)(C)C)C(C)C)c2ccc(OC)cc2)cc1` (stereo not given in full) (Boc-[ξV][NMeF][ξNMeV][NMeV]P[NMeD](X3)[ξNMeA]-OH), the GI50 in test [1] was 15.2 µM; in [2], 18 µM; in test [3], 22.5 µM; in [5] it was 14.5 µM; in [8], 20.1 µM; in test [9], 17.4 µM. Also, the results for the GI50 in [10] and in [11] were 19.1 µM and 19.8 µM, respectively. The TGI in test [1] is 12.7 µM and 28.5 µM; in [2], 19.2 µM and 32.3 µM; in test [3], 17.9 µM and 39.8 µM; in test [4], 36.5 µM; in test [5], 16.8 µM and 28.9 µM; in test [7] it was 27.9 µM. Besides, the TGI is > 37.5 µM and 35.7 µM in test [8]; 28.6 µM and 31.1 µM in [9]; 37.5 µM and 33.7 µM in test [10]; 17.5 µM and 41.6 µM in [11].

On to `COC(=O)CC(c1ccccc1)C1(c2ccccc2)SCCS1` (stereo not given), for which the TGI in test [1], in test [2], in [3], in test [5], in test [6] and in [7] was > 290 µM throughout. For the same compound, the TGI in test [10] and in test [11] was > 290 µM in each case.

For the compound `O=C1C=CC(=O)c2nc3c(cc21)CCC3`, the TGI in test [1] was found to be 45.9 µM; in test [4], 42 µM; in test [6], 39.8 µM; in test [7], 29 µM; in test [9], 31 µM; in test [10] it was 28.8 µM. The same compound came in with a TGI in test [11] of 25.6 µM.

In the case of `COc1ccc(C)cc1-c1cc(Sc2ccccc2)c(-c2cc(C)ccc2OC)o1`, the TGI in [1], in test [2], in test [3], in [4], in [6] and in test [7] was > 31.6 µM in each case. In addition, the TGI in [8], in test [9], in test [10] and in test [11] was > 31.6 µM throughout.

Take `O=S(=O)(N/N=C/c1cccc(/C=N/NS(=O)(=O)c2ccccc2)c1)c1ccccc1`: the TGI in [1], in [2], in test [3], in test [4], in [5] and in [6] was > 100 µM throughout. The TGI in test [7], in test [8], in test [9], in test [10] and in test [11] was > 100 µM each time.

For `C/C(CCn1[nH]c(=O)ccc1=O)=N\NC(=O)C(=O)NN`, the TGI in test [1], in test [2], in test [3], in [5], in test [6] and in [7] was > 100 µM in each case. The TGI in test [8], in [9], in test [10] and in test [11] was > 100 µM in each case.

On to `CCCCCC[C@@H]1CCC2C(CO)[C@@H](O)CC[C@@H]2C1` (stereo not given in full), for which the TGI in test [1] is 34.2 µM; in [2], 39.7 µM; in test [3] it was 33.1 µM; in test [4], 41.3 µM; in test [5], 43.3 µM; in test [6], 43 µM. In addition, the TGI in test [7] was found to be 32.6 µM; in test [9] it was 31.3 µM; in test [10], 33.4 µM; in test [11] it was 79.9 µM.

Turning to `c1ccc(NCn2cnc3ccccc32)cc1`, the TGI in [1], in [2], in test [3], in [4], in [5] and in test [6] was > 100 µM each time. Moreover, the TGI in [7], in [8], in test [10] and in test [11] was > 100 µM each time.

Regarding `CC(C)(C)c1cc2c(O)c3cccc4c(=O)c5cccc6c5-c(c34)c2c(c1)c6=O`, the TGI in test [2], in [5], in test [6], in test [7], in test [8] and in test [9] was > 100 µM in each case. Further, the TGI in [10] and in [11] was > 100 µM each time.

As for `CN(C)CC1CC/C(=C\c2ccc(O)cc2)C1=O` (stereo not given), the TGI in [1] amounted to 20.4 µM; in [2], 25.6 µM; in test [3], 17.1 µM; in [4] it was 17.9 µM; in [5], 21.1 µM; in [6], 15.9 µM. In addition, the TGI in test [7] was found to be 3.45 µM; in test [8], 21.3 µM; in test [9], 4.95 µM; in test [10] it was 14.6 µM; in test [11], 3.53 µM.

As to `NC(=O)c1ccccc1NC(=O)C(=O)C(C(=O)c1ccc(Cl)c(Cl)c1)C1OC(=O)c2ccccc21` (stereo not given), the TGI in test [2] was 56.3 µM; in test [4], > 100 µM; in [6] it was > 100 µM; in [7] it was > 100 µM; in [8], > 100 µM; in [9], > 100 µM. For the same compound, the TGI in [10] and in test [11] was > 100 µM throughout.

As to `Cc1cccc(C)c1NC(=O)CCCC(=O)C1/C(=N/NC(=O)CC#N)CCC/C1=N\NC(=O)CC#N` (stereo not given), the TGI in test [1], in test [2], in [3], in [4], in test [5] and in test [6] was > 100 µM each time. For the same compound, the TGI in test [7], in test [8], in test [9], in test [10] and in [11] was > 100 µM in each case.

For the origin of these results see PubChem BioAssay (NCI).
